Source: patent US8410161B2, “Thioxanthone ring system derivatives” (National Defense Medical Center, priority 2010, dated 2013)

How the values were obtained:
A control cell lines = test: MTT assay, A control cell lines (lung cancer cell); assay type: cell-based
Source text: Please refer to Table 1 and FIGS. 4A-4C. According to a MTT assay (Table 1), various cell viabilities of the A control cell lines can be obtained and illustrated in FIG. 4A while the compounds No. 2˜30 are used to treat A control cell lines, wherein A control cell lines are lung cancer cell.

A3 cell lines = test: MTT assay, A3 cell lines (lung cancer stem cell); assay type: cell-based
Source text: Please to FIG. 4B, various cell viabilities of the A3 cell lines can be obtained through the MTT assay and illustrated in FIG. 4B while the compounds No. 1˜30 are used to treat A3 cell lines, wherein A3 cell lines are lung cancer stem cell.

[1] = MTT assay, HEL299 fibroblast; assay type: cell-based; settings: human
Source text: Please refer to FIG. 4C, various cell viabilities of the HEL299 cell lines can be obtained through the MTT assay while the compounds No. 1˜30 are used to treat HEL299 cell lines, wherein HEL299 cell lines are fibroblast.

CCRF-CEM = test: NCI in vitro DTP human cell line screen, CCRF-CEM; assay type: cell-based; settings: Leukemia, 1.00E−5 Molar
Experimental: (§1) Then, a cell toxicity assay of the cancer lines made by National Cancer Institute will be discussed as follows. The cell toxicity assay is performed by choosing ten compounds (existing certification numbers) from the 59 compounds disclosed in the present invention first.

HL-60(TB) = test: NCI in vitro DTP human cell line screen, HL-60(TB); assay type: cell-based; settings: Leukemia, 1.00E−5 Molar
Experimental: as §1

K562 = test: NCI in vitro DTP human cell line screen, K562; assay type: cell-based; settings: Leukemia, 1.00E−5 Molar
Experimental: as §1

MOLT-4 = test: NCI in vitro DTP human cell line screen, MOLT-4; assay type: cell-based; settings: Leukemia, 1.00E−5 Molar
Experimental: as §1

RPMI-8226 = test: NCI in vitro DTP human cell line screen, RPMI-8226; assay type: cell-based; settings: Leukemia, 1.00E−5 Molar
Experimental: as §1

SR = test: NCI in vitro DTP human cell line screen, SR; assay type: cell-based; settings: Leukemia, 1.00E−5 Molar
Experimental: as §1

EKVX = test: NCI in vitro DTP human cell line screen, EKVX; assay type: cell-based; settings: Non-Small Cell Lung Cancer, 1.00E−5 Molar
Experimental: as §1

HOP-92 = test: NCI in vitro DTP human cell line screen, HOP-92; assay type: cell-based; settings: Non-Small Cell Lung Cancer, 1.00E−5 Molar
Experimental: as §1

NCI-H226 = test: NCI in vitro DTP human cell line screen, NCI-H226; assay type: cell-based; settings: Non-Small Cell Lung Cancer, 1.00E−5 Molar
Experimental: as §1

NCI-H23 = test: NCI in vitro DTP human cell line screen, NCI-H23; assay type: cell-based; settings: Non-Small Cell Lung Cancer, 1.00E−5 Molar
Experimental: as §1

NCI-H322M = test: NCI in vitro DTP human cell line screen, NCI-H322M; assay type: cell-based; settings: Non-Small Cell Lung Cancer, 1.00E−5 Molar
Experimental: as §1

NCI-H460 = test: NCI in vitro DTP human cell line screen, NCI-H460; assay type: cell-based; settings: Non-Small Cell Lung Cancer, 1.00E−5 Molar
Experimental: as §1

NCI-H522 = test: NCI in vitro DTP human cell line screen, NCI-H522; assay type: cell-based; settings: Non-Small Cell Lung Cancer, 1.00E−5 Molar
Experimental: as §1

COLO 205 = test: NCI in vitro DTP human cell line screen, COLO 205; assay type: cell-based; settings: Colon Cancer, 1.00E−5 Molar
Experimental: as §1

HCC-2998 = test: NCI in vitro DTP human cell line screen, HCC-2998; assay type: cell-based; settings: Colon Cancer, 1.00E−5 Molar
Experimental: as §1

HCT-116 = test: NCI in vitro DTP human cell line screen, HCT-116; assay type: cell-based; settings: Colon Cancer, 1.00E−5 Molar
Experimental: as §1

HCT-15 = test: NCI in vitro DTP human cell line screen, HCT-15; assay type: cell-based; settings: Colon Cancer, 1.00E−5 Molar
Experimental: as §1

HT29 = test: NCI in vitro DTP human cell line screen, HT29; assay type: cell-based; settings: Colon Cancer, 1.00E−5 Molar
Experimental: as §1

KM12 = test: NCI in vitro DTP human cell line screen, KM12; assay type: cell-based; settings: Colon Cancer, 1.00E−5 Molar
Experimental: as §1

SW-620 = test: NCI in vitro DTP human cell line screen, SW-620; assay type: cell-based; settings: Colon Cancer, 1.00E−5 Molar
Experimental: as §1

SF-268 = test: NCI in vitro DTP human cell line screen, SF-268; assay type: cell-based; settings: CNS Cancer, 1.00E−5 Molar
Experimental: as §1

SF-295 = test: NCI in vitro DTP human cell line screen, SF-295; assay type: cell-based; settings: CNS Cancer, 1.00E−5 Molar
Experimental: as §1

SF-539 = test: NCI in vitro DTP human cell line screen, SF-539; assay type: cell-based; settings: CNS Cancer, 1.00E−5 Molar
Experimental: as §1

SNB-19 = test: NCI in vitro DTP human cell line screen, SNB-19; assay type: cell-based; settings: CNS Cancer, 1.00E−5 Molar
Experimental: as §1

SNB-75 = test: NCI in vitro DTP human cell line screen, SNB-75; assay type: cell-based; settings: CNS Cancer, 1.00E−5 Molar
Experimental: as §1

U251 = test: NCI in vitro DTP human cell line screen, U251; assay type: cell-based; settings: CNS Cancer, 1.00E−5 Molar
Experimental: as §1

LOX IMVI = test: NCI in vitro DTP human cell line screen, LOX IMVI; assay type: cell-based; settings: Melanoma, 1.00E−5 Molar
Experimental: as §1

MALME-3M = test: NCI in vitro DTP human cell line screen, MALME-3M; assay type: cell-based; settings: Melanoma, 1.00E−5 Molar
Experimental: as §1

M14 = test: NCI in vitro DTP human cell line screen, M14; assay type: cell-based; settings: Melanoma, 1.00E−5 Molar
Experimental: as §1

MDA-MB-435 = test: NCI in vitro DTP human cell line screen, MDA-MB-435; assay type: cell-based; settings: Melanoma, 1.00E−5 Molar
Experimental: as §1

SK-MEL-2 = test: NCI in vitro DTP human cell line screen, SK-MEL-2; assay type: cell-based; settings: Melanoma, 1.00E−5 Molar
Experimental: as §1

SK-MEL-28 = test: NCI in vitro DTP human cell line screen, SK-MEL-28; assay type: cell-based; settings: Melanoma, 1.00E−5 Molar
Experimental: as §1

SK-MEL-5 = test: NCI in vitro DTP human cell line screen, SK-MEL-5; assay type: cell-based; settings: Melanoma, 1.00E−5 Molar
Experimental: as §1

UACC-257 = test: NCI in vitro DTP human cell line screen, UACC-257; assay type: cell-based; settings: Melanoma, 1.00E−5 Molar
Experimental: as §1

UACC-62 = test: NCI in vitro DTP human cell line screen, UACC-62; assay type: cell-based; settings: Melanoma, 1.00E−5 Molar
Experimental: as §1

IGROV1 = test: NCI in vitro DTP human cell line screen, IGROV1; assay type: cell-based; settings: Ovarian Cancer, 1.00E−5 Molar
Experimental: as §1

OVCAR-3 = test: NCI in vitro DTP human cell line screen, OVCAR-3; assay type: cell-based; settings: Ovarian Cancer, 1.00E−5 Molar
Experimental: as §1

OVCAR-4 = test: NCI in vitro DTP human cell line screen, OVCAR-4; assay type: cell-based; settings: Ovarian Cancer, 1.00E−5 Molar
Experimental: as §1

OVCAR-5 = test: NCI in vitro DTP human cell line screen, OVCAR-5; assay type: cell-based; settings: Ovarian Cancer, 1.00E−5 Molar
Experimental: as §1

OVCAR-8 = test: NCI in vitro DTP human cell line screen, OVCAR-8; assay type: cell-based; settings: Ovarian Cancer, 1.00E−5 Molar
Experimental: as §1

NCI/ADR-RES = test: NCI in vitro DTP human cell line screen, NCI/ADR-RES; assay type: cell-based; settings: Ovarian Cancer, 1.00E−5 Molar
Experimental: as §1

SK-OV-3 = test: NCI in vitro DTP human cell line screen, SK-OV-3; assay type: cell-based; settings: Ovarian Cancer, 1.00E−5 Molar
Experimental: as §1

786-0 = test: NCI in vitro DTP human cell line screen, 786-0; assay type: cell-based; settings: Renal Cancer, 1.00E−5 Molar
Experimental: as §1

ACHN = test: NCI in vitro DTP human cell line screen, ACHN; assay type: cell-based; settings: Renal Cancer, 1.00E−5 Molar
Experimental: as §1

CAKI-1 = test: NCI in vitro DTP human cell line screen, CAKI-1; assay type: cell-based; settings: Renal Cancer, 1.00E−5 Molar
Experimental: as §1

RXF 393 = test: NCI in vitro DTP human cell line screen, RXF 393; assay type: cell-based; settings: Renal Cancer, 1.00E−5 Molar
Experimental: as §1

SN12C = test: NCI in vitro DTP human cell line screen, SN12C; assay type: cell-based; settings: Renal Cancer, 1.00E−5 Molar
Experimental: as §1

TK-10 = test: NCI in vitro DTP human cell line screen, TK-10; assay type: cell-based; settings: Renal Cancer, 1.00E−5 Molar
Experimental: as §1

UO-31 = test: NCI in vitro DTP human cell line screen, UO-31; assay type: cell-based; settings: Renal Cancer, 1.00E−5 Molar
Experimental: as §1

PC-3 = test: NCI in vitro DTP human cell line screen, PC-3; assay type: cell-based; settings: Prostate Cancer, 1.00E−5 Molar
Experimental: as §1

DU145 = test: NCI in vitro DTP human cell line screen, DU145; assay type: cell-based; settings: Prostate Cancer, 1.00E−5 Molar
Experimental: as §1

MCF7 = test: NCI in vitro DTP human cell line screen, MCF7; assay type: cell-based; settings: Breast Cancer, 1.00E−5 Molar
Experimental: as §1

MDA-MB-231/ATCC = test: NCI in vitro DTP human cell line screen, MDA-MB-231/ATCC; assay type: cell-based; settings: Breast Cancer, 1.00E−5 Molar
Experimental: as §1

HS 578-T = test: NCI in vitro DTP human cell line screen, HS 578-T; assay type: cell-based; settings: Breast Cancer, 1.00E−5 Molar
Experimental: as §1

BT-549 = test: NCI in vitro DTP human cell line screen, BT-549; assay type: cell-based; settings: Breast Cancer, 1.00E−5 Molar
Experimental: as §1

T-47D = test: NCI in vitro DTP human cell line screen, T-47D; assay type: cell-based; settings: Breast Cancer, 1.00E−5 Molar
Experimental: as §1

MDA-MB-468 = test: NCI in vitro DTP human cell line screen, MDA-MB-468; assay type: cell-based; settings: Breast Cancer, 1.00E−5 Molar
Experimental: as §1

60 cancer lines = test: NCI cell toxicity assay of 60 cancer lines, whole panel summary; assay type: cell-based, human; settings: mean over all cell lines; 1.00E−5 Molar
Experimental: as §1

SMILES: O=c1c2ccccc2sc2c(Cl)c(Sc3ccccc3)ccc12 [No. 6, 4-Chloro-3-(phenylthio)-9H-thioxanthen-9-one]
- cell viabilities of A control cell lines (MTT assay) (A control cell lines): 99.7 ± 4.76%
- cell viabilities of A3 cell lines (MTT assay) (A3 cell lines): 103 ± 13.0%
- viability [1]: 107 ± 2.62%
- Growth Percent (CCRF-CEM): 96.58%
- Growth Percent (HL-60(TB)): 103.53%
- Growth Percent (K562): 101.65%
- Growth Percent (MOLT-4): 99.77%
- Growth Percent (RPMI-8226): 102.11%
- Growth Percent (SR): 91.41%
- Growth Percent (EKVX): 94.90%
- Growth Percent (HOP-92): 76.04%
- Growth Percent (NCI-H226): 85.36%
- Growth Percent (NCI-H23): 84.67%
- Growth Percent (NCI-H322M): 96.11%
- Growth Percent (NCI-H460): 108.87%
- Growth Percent (NCI-H522): 84.11%
- Growth Percent (COLO 205): 103.82%
- Growth Percent (HCC-2998): 106.34%
- Growth Percent (HCT-116): 98.18%
- Growth Percent (HCT-15): 92.60%
- Growth Percent (HT29): 102.56%
- Growth Percent (KM12): 99.82%
- Growth Percent (SW-620): 96.96%
- Growth Percent (SF-268): 93.39%
- Growth Percent (SF-295): 100.33%
- Growth Percent (SF-539): 104.85%
- Growth Percent (SNB-19): 98.01%
- Growth Percent (SNB-75): 82.75%
- Growth Percent (U251): 94.85%
- Growth Percent (LOX IMVI): 96.25%
- Growth Percent (MALME-3M): 92.44%
- Growth Percent (M14): 104.30%
- Growth Percent (MDA-MB-435): 103.22%
- Growth Percent (SK-MEL-2): 104.71%
- Growth Percent (SK-MEL-28): 113.07%
- Growth Percent (SK-MEL-5): 95.50%
- Growth Percent (UACC-257): 102.79%
- Growth Percent (UACC-62): 79.70%
- Growth Percent (IGROV1): 91.62%
- Growth Percent (OVCAR-3): 108.01%
- Growth Percent (OVCAR-4): 99.56%
- Growth Percent (OVCAR-5): 104.51%
- Growth Percent (OVCAR-8): 94.68%
- Growth Percent (NCI/ADR-RES): 96.88%
- Growth Percent (SK-OV-3): 96.13%
- Growth Percent (786-0): 111.45%
- Growth Percent (ACHN): 94.03%
- Growth Percent (CAKI-1): 84.00%
- Growth Percent (RXF 393): 110.95%
- Growth Percent (SN12C): 87.55%
- Growth Percent (TK-10): 97.85%
- Growth Percent (UO-31): 73.68%
- Growth Percent (PC-3): 90.81%
- Growth Percent (DU145): 108.05%
- Growth Percent (MCF7): 82.14%
- Growth Percent (MDA-MB-231/ATCC): 93.94%
- Growth Percent (HS 578-T): 119.59%
- Growth Percent (BT-549): 107.30%
- Growth Percent (T-47D): 87.90%
- Growth Percent (MDA-MB-468): 82.54%
- Growth Percent, Mean (60 cancer lines): 96.75%
